According to the supplement of paper PMC10307832:

How the values were obtained:
Assay in all cases: relative viability (nuclei count vs DMSO), 5 days (fraction); higher = more cells survive
[1] = compound: COc1cc2ncn(-c3cc(OCc4ccccc4C(F)(F)F)c(C(N)=O)s3)c2cc1OC + CC(=O)c1c(C)c2cnc(Nc3ccc(N4CCNCC4)cn3)nc2n(C2CCCC2)c1=O [Palbociclib] (partner 0.5 µM)
Procedure, shortened: (§1)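 Five library-drug doses in √10 steps were combined with a fixed anchor-drug dose, or a single drug was given alone, by pin tool to lung cancer cell lines in 1536-well plates the day after seeding. Nuclei were stained and counted after 5 days. Relative viability is the nuclei count in treated wells over that in vehicle wells, taken as the median of duplicate plates.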

[2] = compound: COc1cc2ncn(-c3cc(OCc4ccccc4C(F)(F)F)c(C(N)=O)s3)c2cc1OC + Cc1nc(NC(=O)N2CCC[C@H]2C(N)=O)sc1-c1ccnc(C(C)(C)C(F)(F)F)c1 [Alpelisib] (partner 2 µM)
Procedure, shortened: as §1

[3] = compound: COc1cc2ncn(-c3cc(OCc4ccccc4C(F)(F)F)c(C(N)=O)s3)c2cc1OC + Nc1nc2[nH]cc(CCc3ccc(C(=O)N[C@@H](CCC(=O)O)C(=O)O)cc3)c2c(=O)[nH]1 [Pemetrexed] (partner 0.2 µM)
Procedure, shortened: as §1

[4] = compound: COc1cc2ncn(-c3cc(OCc4ccccc4C(F)(F)F)c(C(N)=O)s3)c2cc1OC + O=C(c1cc(Cc2n[nH]c(=O)c3ccccc23)ccc1F)N1CCN(C(=O)C2CC2)CC1 [Olaparib] (partner 8 µM)
Procedure, shortened: as §1

Cell Line: NCI-H2009
- relative viability ([1]; first compound 0.05 µM): 0.191
- relative viability ([1]; first compound 0.1581 µM): 0.203
- relative viability ([1]; first compound 0.5 µM): 0.188
- relative viability ([1]; first compound 1.581 µM): 0.178
- relative viability ([1]; first compound 5 µM): 0.127
- relative viability ([2]; first compound 0.05 µM): 1.07
- relative viability ([2]; first compound 0.1581 µM): 1.05
- relative viability ([2]; first compound 0.5 µM): 0.667
- relative viability ([2]; first compound 1.581 µM): 0.169
- relative viability ([2]; first compound 5 µM): 0.154
- relative viability ([3]; first compound 0.05 µM): 0.983
- relative viability ([3]; first compound 0.1581 µM): 0.884
- relative viability ([3]; first compound 0.5 µM): 0.43
- relative viability ([3]; first compound 1.581 µM): 0.218
- relative viability ([3]; first compound 5 µM): 0.26
- relative viability ([4]; first compound 0.05 µM): 0.604
- relative viability ([4]; first compound 0.1581 µM): 0.623
- relative viability ([4]; first compound 0.5 µM): 0.171
- relative viability ([4]; first compound 1.581 µM): 0.107
- relative viability ([4]; first compound 5 µM): 0.0932

Cell Line: NCI-H2023
- relative viability ([1]; first compound 0.05 µM): 0.397
- relative viability ([1]; first compound 0.1581 µM): 0.41
- relative viability ([1]; first compound 0.5 µM): 0.265
- relative viability ([1]; first compound 1.581 µM): 0.0834
- relative viability ([1]; first compound 5 µM): 0.0792
- relative viability ([2]; first compound 0.05 µM): 0.547
- relative viability ([2]; first compound 0.1581 µM): 0.634
- relative viability ([2]; first compound 0.5 µM): 0.61
- relative viability ([2]; first compound 1.581 µM): 0.0955
- relative viability ([2]; first compound 5 µM): 0.0801
- relative viability ([3]; first compound 0.05 µM): 0.202
- relative viability ([3]; first compound 0.1581 µM): 0.2
- relative viability ([3]; first compound 0.5 µM): 0.177
- relative viability ([3]; first compound 1.581 µM): 0.107
- relative viability ([3]; first compound 5 µM): 0.114
- relative viability ([4]; first compound 0.05 µM): 0.416
- relative viability ([4]; first compound 0.1581 µM): 0.392
- relative viability ([4]; first compound 0.5 µM): 0.16
- relative viability ([4]; first compound 1.581 µM): 0.0751
- relative viability ([4]; first compound 5 µM): 0.0692

Cell Line: NCI-H2085
- relative viability ([1]; first compound 0.05 µM): 0.423
- relative viability ([1]; first compound 0.1581 µM): 0.476
- relative viability ([1]; first compound 0.5 µM): 0.488
- relative viability ([1]; first compound 1.581 µM): 0.38
- relative viability ([1]; first compound 5 µM): 0.244
- relative viability ([2]; first compound 0.05 µM): 1.01
- relative viability ([2]; first compound 0.1581 µM): 0.959
- relative viability ([2]; first compound 0.5 µM): 0.75
- relative viability ([2]; first compound 1.581 µM): 0.4
- relative viability ([2]; first compound 5 µM): 0.386
- relative viability ([3]; first compound 0.05 µM): 0.85
- relative viability ([3]; first compound 0.1581 µM): 0.831
- relative viability ([3]; first compound 0.5 µM): 0.719
- relative viability ([3]; first compound 1.581 µM): 0.33
- relative viability ([3]; first compound 5 µM): 0.292
- relative viability ([4]; first compound 0.05 µM): 0.658
- relative viability ([4]; first compound 0.1581 µM): 0.721
- relative viability ([4]; first compound 0.5 µM): 0.481
- relative viability ([4]; first compound 1.581 µM): 0.367
- relative viability ([4]; first compound 5 µM): 0.306

Cell Line: NCI-H2087
- relative viability ([1]; first compound 0.05 µM): 0.232
- relative viability ([1]; first compound 0.1581 µM): 0.185
- relative viability ([1]; first compound 0.5 µM): 0.24
- relative viability ([1]; first compound 1.581 µM): 0.0808
- relative viability ([1]; first compound 5 µM): 0.106
- relative viability ([2]; first compound 0.05 µM): 1.18
- relative viability ([2]; first compound 0.1581 µM): 0.953
- relative viability ([2]; first compound 0.5 µM): 0.311
- relative viability ([2]; first compound 1.581 µM): 0.169
- relative viability ([2]; first compound 5 µM): 0.142
- relative viability ([3]; first compound 0.05 µM): 0.617
- relative viability ([3]; first compound 0.1581 µM): 0.684
- relative viability ([3]; first compound 0.5 µM): 0.414
- relative viability ([3]; first compound 1.581 µM): 0.11
- relative viability ([3]; first compound 5 µM): 0.106
- relative viability ([4]; first compound 0.05 µM): 0.432
- relative viability ([4]; first compound 0.1581 µM): 0.493
- relative viability ([4]; first compound 0.5 µM): 0.346
- relative viability ([4]; first compound 1.581 µM): 0.098
- relative viability ([4]; first compound 5 µM): 0.0728

Cell Line: NCI-H2126
- relative viability ([1]; first compound 0.05 µM): 0.373
- relative viability ([1]; first compound 0.1581 µM): 0.31
- relative viability ([1]; first compound 0.5 µM): 0.348
- relative viability ([1]; first compound 1.581 µM): 0.273
- relative viability ([1]; first compound 5 µM): 0.265
- relative viability ([2]; first compound 0.05 µM): 0.731
- relative viability ([2]; first compound 0.1581 µM): 0.803
- relative viability ([2]; first compound 0.5 µM): 0.668
- relative viability ([2]; first compound 1.581 µM): 0.293
- relative viability ([2]; first compound 5 µM): 0.234
- relative viability ([3]; first compound 0.05 µM): 0.75
- relative viability ([3]; first compound 0.1581 µM): 0.655
- relative viability ([3]; first compound 0.5 µM): 0.498
- relative viability ([3]; first compound 1.581 µM): 0.288
- relative viability ([3]; first compound 5 µM): 0.251
- relative viability ([4]; first compound 0.05 µM): 0.813
- relative viability ([4]; first compound 0.1581 µM): 0.86
- relative viability ([4]; first compound 0.5 µM): 0.449
- relative viability ([4]; first compound 1.581 µM): 0.238
- relative viability ([4]; first compound 5 µM): 0.241

Cell Line: NCI-H2170
- relative viability ([1]; first compound 0.05 µM): 0.401
- relative viability ([1]; first compound 0.1581 µM): 0.371
- relative viability ([1]; first compound 0.5 µM): 0.212
- relative viability ([1]; first compound 1.581 µM): 0.165
- relative viability ([1]; first compound 5 µM): 0.148
- relative viability ([2]; first compound 0.05 µM): 0.789
- relative viability ([2]; first compound 0.1581 µM): 0.799
- relative viability ([2]; first compound 0.5 µM): 0.41
- relative viability ([2]; first compound 1.581 µM): 0.176
- relative viability ([2]; first compound 5 µM): 0.18
- relative viability ([3]; first compound 0.05 µM): 0.251
- relative viability ([3]; first compound 0.1581 µM): 0.268
- relative viability ([3]; first compound 0.5 µM): 0.26
- relative viability ([3]; first compound 1.581 µM): 0.184
- relative viability ([3]; first compound 5 µM): 0.162
- relative viability ([4]; first compound 0.05 µM): 0.566
- relative viability ([4]; first compound 0.1581 µM): 0.444
- relative viability ([4]; first compound 0.5 µM): 0.166
- relative viability ([4]; first compound 1.581 µM): 0.168
- relative viability ([4]; first compound 5 µM): 0.148

Cell Line: NCI-H2228
- relative viability ([1]; first compound 0.05 µM): 0.767
- relative viability ([1]; first compound 0.1581 µM): 0.328
- relative viability ([1]; first compound 0.5 µM): 0.352
- relative viability ([1]; first compound 1.581 µM): 0.192
- relative viability ([1]; first compound 5 µM): 0.259
- relative viability ([2]; first compound 0.05 µM): 0.612
- relative viability ([2]; first compound 0.1581 µM): 0.866
- relative viability ([2]; first compound 0.5 µM): 0.186
- relative viability ([2]; first compound 1.581 µM): 0.187
- relative viability ([2]; first compound 5 µM): 0.272
- relative viability ([3]; first compound 0.05 µM): 0.329
- relative viability ([3]; first compound 0.1581 µM): 0.352
- relative viability ([3]; first compound 0.5 µM): 0.265
- relative viability ([3]; first compound 1.581 µM): 0.153
- relative viability ([3]; first compound 5 µM): 0.238
- relative viability ([4]; first compound 0.05 µM): 0.224
- relative viability ([4]; first compound 0.1581 µM): 0.721
- relative viability ([4]; first compound 0.5 µM): 0.201
- relative viability ([4]; first compound 1.581 µM): 0.157
- relative viability ([4]; first compound 5 µM): 0.194

Cell Line: NCI-H2347
- relative viability ([1]; first compound 0.05 µM): 0.373
- relative viability ([1]; first compound 0.1581 µM): 0.413
- relative viability ([1]; first compound 0.5 µM): 0.397
- relative viability ([1]; first compound 1.581 µM): 0.377
- relative viability ([1]; first compound 5 µM): 0.375
- relative viability ([2]; first compound 0.05 µM): 0.896
- relative viability ([2]; first compound 0.1581 µM): 0.92
- relative viability ([2]; first compound 0.5 µM): 0.813
- relative viability ([2]; first compound 1.581 µM): 0.581
- relative viability ([2]; first compound 5 µM): 0.735
- relative viability ([3]; first compound 0.05 µM): 0.455
- relative viability ([3]; first compound 0.1581 µM): 0.434
- relative viability ([3]; first compound 0.5 µM): 0.403
- relative viability ([3]; first compound 1.581 µM): 0.364
- relative viability ([3]; first compound 5 µM): 0.33
- relative viability ([4]; first compound 0.05 µM): 0.491
- relative viability ([4]; first compound 0.1581 µM): 0.569
- relative viability ([4]; first compound 0.5 µM): 0.504
- relative viability ([4]; first compound 1.581 µM): 0.513
- relative viability ([4]; first compound 5 µM): 0.471
